Publication PMC7531004, “Discovery of gramicidin A analogues with altered activities by multidimensional screening of a one-bead-one-compound library” (Nature Communications, 2020)
Where a SMILES comes first, the peptide text is derived from it. [ ]: non-standard residue; d: D form. The star is where a group is joined. NHCH2CH2OH = OCCN*; For = O=C*

What was measured:
[1] = system: P388 mouse leukemia cells; settings: 92 h
Summary of the method: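 First, library peptide stocks are diluted 250-fold in RPMI1640 with 10% heat-inactivated FBS. Next, they are mixed with P388 cells to give 1 × 10^4 cells/mL and incubated 92 h at 37 °C, 5% CO2. Finally, viability (%) is scored by WST-1 absorbance at 415 nm.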

[2] = H+/Na+ transport assay of bead-derived peptides (one-point); type: biochemical; set-up: key: relative activity; mean of two control wells = 1.00; settings: bead-derived peptide solution, EYPC/EYPG LUVs;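 also: relative to parent gramicidin A activity set to 1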
Summary of the method: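 Miniaturized 96-well format. LUVs with entrapped pyranine (1.0 mM) were exposed to peptide for 30 min at RT. Intensities were expressed relative to full lysis by Triton X-100 and no treatment, with control-well mean = 1.00.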

[3] = system: Streptococcus pyogenes SSI-9; assay: Antibacterial activity assay of bead-derived peptides (three concentrations); type: cell-based; set-up: key: +++: inhibition by the 640-fold diluted peptide solution; ++: inhibition by the 160-fold diluted solution; +: inhibition by the 40-fold diluted solution; -: no inhibition; settings: S. pyogenes, bead-derived peptide solution, three concentrations
Summary of the method: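 Bead-derived library peptide stocks in DMSO were tested undiluted and after 4- and 16-fold DMSO dilution against S. pyogenes SSI-9 (2 × 10^5 CFU/well) in cation-adjusted Mueller Hinton Broth with 5% laked horse blood. After 18 h at 37 °C, wells were scored for precipitation of grown cells.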

Compound: CNC(=O)C[C@@H](NC(=O)[C@@H](NC(=O)[C@@H](CC(C)C)NC(=O)[C@H](C)NC(=O)[C@H](NC(=O)[C@H](C)NC(=O)CNC(=O)[C@@H](NC=O)C(C)C)C(C)C)C(C)C)C(=O)N[C@@H](Cc1c[nH]c2ccccc12)C(=O)N[C@@H](C(=O)N[C@@H](Cc1c[nH]c2ccccc12)C(=O)N[C@@H](C(=O)N[C@@H](Cc1c[nH]c2ccccc12)C(=O)N[C@@H](C(=O)N[C@@H](Cc1c[nH]c2ccccc12)C(=O)NCCO)C(C)C)C(C)C)C(C)C [compound 12576] (For-VGA[dV]A[dL]V[dD](NHMe)W[dV]W[dV]W[dV]W-NHCH2CH2OH)
- cell viability/% [1]: 100.0%
- H+/Na+ transport activity normalized against the value of 1 (1.00) [2]: 1.09
- antibacterial activity [3]: -

Compound: CNC(=O)C[C@@H](NC(=O)[C@@H](NC(=O)[C@@H](CC(C)C)NC(=O)[C@H](C)NC(=O)[C@@H](CC(C)C)NC(=O)[C@H](C)NC(=O)CNC(=O)[C@@H](NC=O)C(C)C)C(C)C)C(=O)N[C@@H](Cc1c[nH]c2ccccc12)C(=O)N[C@H](CC(C)C)C(=O)N[C@@H](Cc1c[nH]c2ccccc12)C(=O)N[C@H](CC(C)C)C(=O)N[C@@H](Cc1c[nH]c2ccccc12)C(=O)N[C@@H](C(=O)N[C@@H](Cc1c[nH]c2ccccc12)C(=O)NCCO)[C@H](C)O [compound 638] (For-VGA[dL]A[dL]V[dD](NHMe)W[dL]W[dL]W[dT]W-NHCH2CH2OH)
- cell viability/% [1]: 100.0%
- H+/Na+ transport activity normalized against the value of 1 (1.00) [2]: 1.01
- antibacterial activity [3]: -

Compound: CC(C)C[C@@H](NC(=O)[C@H](C)NC(=O)CNC(=O)[C@@H](NC=O)C(C)C)C(=O)N[C@@H](C)C(=O)N[C@H](CC(C)C)C(=O)N[C@H](C(=O)N[C@@H](C(=O)N[C@@H](Cc1c[nH]c2ccccc12)C(=O)N[C@H](CC(C)C)C(=O)N[C@@H](Cc1c[nH]c2ccccc12)C(=O)N[C@@H](C(=O)N[C@@H](Cc1c[nH]c2ccccc12)C(=O)N[C@H](CC(C)C)C(=O)N[C@@H](Cc1c[nH]c2ccccc12)C(=O)NCCO)[C@H](C)O)[C@H](C)O)C(C)C [compound 3780] (For-VGA[dL]A[dL]V[dT]W[dL]W[dT]W[dL]W-NHCH2CH2OH)
- cell viability/% [1]: 100.0%
- H+/Na+ transport activity normalized against the value of 1 (1.00) [2]: 1.16
- antibacterial activity [3]: -

Compound: CC(C)C[C@@H](NC(=O)[C@H](C)NC(=O)CNC(=O)[C@@H](NC=O)C(C)C)C(=O)N[C@@H](C)C(=O)N[C@H](CC(C)C)C(=O)N[C@H](C(=O)N[C@H](CC(C)C)C(=O)N[C@@H](Cc1c[nH]c2ccccc12)C(=O)N[C@@H](C(=O)N[C@@H](Cc1c[nH]c2ccccc12)C(=O)N[C@H](CC(C)C)C(=O)N[C@@H](Cc1c[nH]c2ccccc12)C(=O)N[C@@H](C(=O)N[C@@H](Cc1c[nH]c2ccccc12)C(=O)NCCO)C(C)C)[C@H](C)O)C(C)C [compound 10499] (For-VGA[dL]A[dL]V[dL]W[dT]W[dL]W[dV]W-NHCH2CH2OH)
- cell viability/% [1]: 100.0%
- H+/Na+ transport activity normalized against the value of 1 (1.00) [2]: 1.14
- antibacterial activity [3]: -

Compound: CC(C)C[C@@H](NC(=O)[C@H](C)NC(=O)[C@H](NC(=O)[C@H](C)NC(=O)CNC(=O)[C@@H](NC=O)C(C)C)C(C)C)C(=O)N[C@H](C(=O)N[C@@H](C(=O)N[C@@H](Cc1c[nH]c2ccccc12)C(=O)N[C@H](CC(C)C)C(=O)N[C@@H](Cc1c[nH]c2ccccc12)C(=O)N[C@@H](C(=O)N[C@@H](Cc1c[nH]c2ccccc12)C(=O)N[C@@H](C(=O)N[C@@H](Cc1c[nH]c2ccccc12)C(=O)NCCO)C(C)C)C(C)C)[C@H](C)O)C(C)C [compound 4126] (For-VGA[dV]A[dL]V[dT]W[dL]W[dV]W[dV]W-NHCH2CH2OH)
- cell viability/% [1]: 100.0%
- H+/Na+ transport activity normalized against the value of 1 (1.00) [2]: 1.06
- antibacterial activity [3]: -

Compound: CC(C)C[C@@H](NC(=O)[C@H](C)NC(=O)[C@H](NC(=O)[C@H](C)NC(=O)CNC(=O)[C@@H](NC=O)C(C)C)[C@H](C)O)C(=O)N[C@H](C(=O)N[C@H](CC(C)C)C(=O)N[C@@H](Cc1c[nH]c2ccccc12)C(=O)N[C@@H](C(=O)N[C@@H](Cc1c[nH]c2ccccc12)C(=O)N[C@@H](C(=O)N[C@@H](Cc1c[nH]c2ccccc12)C(=O)N[C@H](CC(C)C)C(=O)N[C@@H](Cc1c[nH]c2ccccc12)C(=O)NCCO)C(C)C)[C@H](C)O)C(C)C [compound 7015] (For-VGA[dT]A[dL]V[dL]W[dT]W[dV]W[dL]W-NHCH2CH2OH)
- cell viability/% [1]: 100.0%
- H+/Na+ transport activity normalized against the value of 1 (1.00) [2]: 1.07
- antibacterial activity [3]: -

Compound: CC(C)C[C@@H](NC(=O)[C@H](C)NC(=O)[C@H](NC(=O)[C@H](C)NC(=O)CNC(=O)[C@@H](NC=O)C(C)C)[C@H](C)O)C(=O)N[C@H](C(=O)N[C@@H](C(=O)N[C@@H](Cc1c[nH]c2ccccc12)C(=O)N[C@@H](C(=O)N[C@@H](Cc1c[nH]c2ccccc12)C(=O)N[C@H](CC(C)C)C(=O)N[C@@H](Cc1c[nH]c2ccccc12)C(=O)N[C@H](CC(C)C)C(=O)N[C@@H](Cc1c[nH]c2ccccc12)C(=O)NCCO)C(C)C)C(C)C)C(C)C [compound 4652] (For-VGA[dT]A[dL]V[dV]W[dV]W[dL]W[dL]W-NHCH2CH2OH)
- cell viability/% [1]: 100.0%
- H+/Na+ transport activity normalized against the value of 1 (1.00) [2]: 1.03
- antibacterial activity [3]: -

Compound: CC(C)C[C@@H](NC(=O)[C@H](C)NC(=O)CNC(=O)[C@@H](NC=O)C(C)C)C(=O)N[C@@H](C)C(=O)N[C@@H](C(=O)N[C@H](C(=O)N[C@@H](C(=O)N[C@@H](Cc1c[nH]c2ccccc12)C(=O)N[C@@H](C(=O)N[C@@H](Cc1c[nH]c2ccccc12)C(=O)N[C@H](CC(C)C)C(=O)N[C@@H](Cc1c[nH]c2ccccc12)C(=O)N[C@@H](C(=O)N[C@@H](Cc1c[nH]c2ccccc12)C(=O)NCCO)C(C)C)C(C)C)C(C)C)C(C)C)C(C)C [compound 6861] (For-VGA[dL]A[dV]V[dV]W[dV]W[dL]W[dV]W-NHCH2CH2OH)
- cell viability/% [1]: 100.0%
- H+/Na+ transport activity normalized against the value of 1 (1.00) [2]: 1.18
- antibacterial activity [3]: +

Compound: CC(C)C[C@@H](NC(=O)[C@H](C)NC(=O)[C@H](NC(=O)[C@H](C)NC(=O)CNC(=O)[C@@H](NC=O)C(C)C)C(C)C)C(=O)N[C@H](C(=O)N[C@@H](C(=O)N[C@@H](Cc1c[nH]c2ccccc12)C(=O)N[C@@H](C(=O)N[C@@H](Cc1c[nH]c2ccccc12)C(=O)N[C@@H](C(=O)N[C@@H](Cc1c[nH]c2ccccc12)C(=O)N[C@H](CC(C)C)C(=O)N[C@@H](Cc1c[nH]c2ccccc12)C(=O)NCCO)C(C)C)C(C)C)[C@H](C)O)C(C)C [compound 9738] (For-VGA[dV]A[dL]V[dT]W[dV]W[dV]W[dL]W-NHCH2CH2OH)
- cell viability/% [1]: 100.0%
- H+/Na+ transport activity normalized against the value of 1 (1.00) [2]: 1.21
- antibacterial activity [3]: -

Compound: CNC(=O)C[C@@H](NC(=O)[C@H](Cc1c[nH]c2ccccc12)NC(=O)[C@H](NC(=O)[C@@H](NC(=O)[C@@H](CC(C)C)NC(=O)[C@H](C)NC(=O)[C@@H](CC(C)C)NC(=O)[C@H](C)NC(=O)CNC(=O)[C@@H](NC=O)C(C)C)C(C)C)C(C)C)C(=O)N[C@@H](Cc1c[nH]c2ccccc12)C(=O)N[C@H](CC(C)C)C(=O)N[C@@H](Cc1c[nH]c2ccccc12)C(=O)N[C@@H](C(=O)N[C@@H](Cc1c[nH]c2ccccc12)C(=O)NCCO)C(C)C [compound 6889] (For-VGA[dL]A[dL]V[dV]W[dD](NHMe)W[dL]W[dV]W-NHCH2CH2OH)
- cell viability/% [1]: 100.0%
- H+/Na+ transport activity normalized against the value of 1 (1.00) [2]: 1.10
- antibacterial activity [3]: -

Compound: CC(C)C[C@@H](NC(=O)[C@H](C)NC(=O)[C@H](NC(=O)[C@H](C)NC(=O)CNC(=O)[C@@H](NC=O)C(C)C)C(C)C)C(=O)N[C@H](C(=O)N[C@H](CC(C)C)C(=O)N[C@@H](Cc1c[nH]c2ccccc12)C(=O)N[C@@H](C(=O)N[C@@H](Cc1c[nH]c2ccccc12)C(=O)N[C@@H](C(=O)N[C@@H](Cc1c[nH]c2ccccc12)C(=O)N[C@@H](C(=O)N[C@@H](Cc1c[nH]c2ccccc12)C(=O)NCCO)[C@H](C)O)C(C)C)C(C)C)C(C)C [compound 13147] (For-VGA[dV]A[dL]V[dL]W[dV]W[dV]W[dT]W-NHCH2CH2OH)
- cell viability/% [1]: 94.4%
- H+/Na+ transport activity normalized against the value of 1 (1.00) [2]: 1.09
- antibacterial activity [3]: -

Compound: CC(C)C[C@@H](NC(=O)[C@H](C)NC(=O)[C@H](NC(=O)[C@H](C)NC(=O)CNC(=O)[C@@H](NC=O)C(C)C)[C@H](C)O)C(=O)N[C@H](C(=O)N[C@@H](C(=O)N[C@@H](Cc1c[nH]c2ccccc12)C(=O)N[C@@H](C(=O)N[C@@H](Cc1c[nH]c2ccccc12)C(=O)N[C@H](CC(C)C)C(=O)N[C@@H](Cc1c[nH]c2ccccc12)C(=O)N[C@@H](C(=O)N[C@@H](Cc1c[nH]c2ccccc12)C(=O)NCCO)C(C)C)C(C)C)C(C)C)C(C)C [compound 6857] (For-VGA[dT]A[dL]V[dV]W[dV]W[dL]W[dV]W-NHCH2CH2OH)
- cell viability/% [1]: 100.0%
- H+/Na+ transport activity normalized against the value of 1 (1.00) [2]: 1.16
- antibacterial activity [3]: -

Compound: CNC(=O)C[C@@H](NC(=O)[C@@H](NC(=O)[C@@H](CC(C)C)NC(=O)[C@H](C)NC(=O)[C@H](NC(=O)[C@H](C)NC(=O)CNC(=O)[C@@H](NC=O)C(C)C)C(C)C)C(C)C)C(=O)N[C@@H](Cc1c[nH]c2ccccc12)C(=O)N[C@H](CC(C)C)C(=O)N[C@@H](Cc1c[nH]c2ccccc12)C(=O)N[C@H](CC(C)C)C(=O)N[C@@H](Cc1c[nH]c2ccccc12)C(=O)N[C@@H](C(=O)N[C@@H](Cc1c[nH]c2ccccc12)C(=O)NCCO)C(C)C [compound 9229] (For-VGA[dV]A[dL]V[dD](NHMe)W[dL]W[dL]W[dV]W-NHCH2CH2OH)
- cell viability/% [1]: 100.0%
- H+/Na+ transport activity normalized against the value of 1 (1.00) [2]: 1.15
- antibacterial activity [3]: -
